The values below are quoted from earlier work in patent US11129842B2, “Methods and compositions for treating diseases related to imbalance of essential fatty acids” (BODYBIO INC., priority 2018, dated 2021).

One may read the Ki as the dissociation constant of the complex between target and ligand, obtained from inhibition or displacement.

One series deals with CB1 cannabinoid receptor (Homo sapiens, UniProt P21554).
The next series has as its target CB2 receptor (Homo sapiens, UniProt P34972).

Sequence of CB2 receptor (P34972 whole entry): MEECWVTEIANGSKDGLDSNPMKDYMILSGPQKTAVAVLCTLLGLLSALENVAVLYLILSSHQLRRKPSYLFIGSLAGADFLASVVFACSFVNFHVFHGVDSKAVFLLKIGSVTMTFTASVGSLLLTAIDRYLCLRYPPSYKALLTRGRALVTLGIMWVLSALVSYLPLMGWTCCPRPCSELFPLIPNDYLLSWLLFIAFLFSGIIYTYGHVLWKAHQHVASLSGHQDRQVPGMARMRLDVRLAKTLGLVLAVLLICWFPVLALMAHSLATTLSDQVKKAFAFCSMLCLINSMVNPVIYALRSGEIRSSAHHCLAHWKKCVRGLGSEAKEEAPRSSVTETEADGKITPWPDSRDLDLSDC
Sequence of CB1 cannabinoid receptor (P21554 whole entry): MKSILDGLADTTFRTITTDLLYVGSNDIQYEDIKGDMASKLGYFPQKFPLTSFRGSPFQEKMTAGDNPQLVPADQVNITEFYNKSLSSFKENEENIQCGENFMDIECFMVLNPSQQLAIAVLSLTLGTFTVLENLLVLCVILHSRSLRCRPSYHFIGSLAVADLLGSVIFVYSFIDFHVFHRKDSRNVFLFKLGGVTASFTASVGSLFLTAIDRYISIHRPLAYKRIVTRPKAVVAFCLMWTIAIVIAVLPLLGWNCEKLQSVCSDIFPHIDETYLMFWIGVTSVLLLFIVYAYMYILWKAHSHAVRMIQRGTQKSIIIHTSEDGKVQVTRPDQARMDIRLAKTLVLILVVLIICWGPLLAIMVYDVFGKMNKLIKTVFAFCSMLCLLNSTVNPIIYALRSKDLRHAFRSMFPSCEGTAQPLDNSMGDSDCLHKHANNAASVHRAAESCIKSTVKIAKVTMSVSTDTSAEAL

Turning to `CCCCC/C=C\C/C=C\C/C=C\C/C=C\CCCCOC(CO)CO` [Noladin ether, 2-arachidonyl glyceryl ether], the Ki at CB1 cannabinoid receptor is 21.2 nM. In addition, the “binding to the CB2 receptor” value at CB2 receptor is on record as “only weakly”.
